According to ChEMBL document CHEMBL4732145, “Discovery of a PROTAC targeting ALK with in vivo activity” (Eur J Med Chem, 2021):
Each block holds one compound with its values, some of them ahead of it.

Legend:
[1] = tested on: NCI-H3122; test: Antiproliferative activity against human NCI-H3122 cells assessed as reduction in cell viability measured after 72 hrs by MTT assay; settings: NCI-H3122, 72 h
[2] = tested on: NCI-H2228; test: Antiproliferative activity against human NCI-H2228 cells assessed as reduction in cell viability measured after 72 hrs by MTT assay; settings: NCI-H2228, 72 h
[3] = tested on: NCI-H1299; test: Antiproliferative activity against human NCI-H1299 cells assessed as reduction in cell viability measured after 72 hrs by MTT assay; settings: NCI-H1299, 72 h
[4] = tested on: A549; test: Antiproliferative activity against human A549 cells assessed as reduction in cell viability measured after 72 hrs by MTT assay; settings: A549, 72 h
[5] = tested on: HeLa; test: Antiproliferative activity against human HeLa cells assessed as reduction in cell viability measured after 72 hrs by MTT assay
[6] = tested on: LO2 (Homo sapiens); test: Cytotoxicity against human L02 cells assessed as reduction in cell viability measured after 72 hrs by MTT assay; settings: l02, 72 h
[7] = molecular target: von Hippel-Lindau disease tumor suppressor/ALK tyrosine kinase receptor/Nucleophosmin (Homo sapiens) (UniProt Q9UM73+P06748+P40337); test: Protac activity at VHL/NPM-ALK fusion protein in human SU-DHL-1 cells assessed as induction of NPM-ALK fusion protein degradation at 1 uM by Western blot analysis relative to control; format: cell-based
[8] = tested on: NCI-H3122; test: Antitumor activity against human NCI-H3122 cells xenografted in BALB/c nude mouse assessed as tumor growth inhibition at 25 mg/kg/day, ig administered for 15 days relative to control; format: functional; settings: NCI-H3122, po, 360 h, time 15 day, read-out: TGI

von Hippel-Lindau disease tumor suppressor/ALK tyrosine kinase receptor/Nucleophosmin (Homo sapiens), sequence (P06748 whole entry partner, the tested form may be a part): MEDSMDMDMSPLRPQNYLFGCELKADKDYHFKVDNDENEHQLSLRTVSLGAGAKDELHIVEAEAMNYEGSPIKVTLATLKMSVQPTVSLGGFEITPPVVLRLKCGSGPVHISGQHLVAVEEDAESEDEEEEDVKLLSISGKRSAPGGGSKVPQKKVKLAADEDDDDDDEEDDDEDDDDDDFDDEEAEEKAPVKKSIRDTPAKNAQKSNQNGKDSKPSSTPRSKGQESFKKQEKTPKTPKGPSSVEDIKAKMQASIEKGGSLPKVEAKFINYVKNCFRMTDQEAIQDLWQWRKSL
von Hippel-Lindau disease tumor suppressor/ALK tyrosine kinase receptor/Nucleophosmin (Homo sapiens), sequence (P40337 whole entry partner, the tested form may be a part): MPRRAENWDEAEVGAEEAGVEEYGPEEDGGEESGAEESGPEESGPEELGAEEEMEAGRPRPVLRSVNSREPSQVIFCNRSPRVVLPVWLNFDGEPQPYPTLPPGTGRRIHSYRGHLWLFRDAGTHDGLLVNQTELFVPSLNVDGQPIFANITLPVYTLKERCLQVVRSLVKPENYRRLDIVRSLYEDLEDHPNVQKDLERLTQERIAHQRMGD
von Hippel-Lindau disease tumor suppressor/ALK tyrosine kinase receptor/Nucleophosmin (Homo sapiens), sequence (Q9UM73 19-1620 limits assumed): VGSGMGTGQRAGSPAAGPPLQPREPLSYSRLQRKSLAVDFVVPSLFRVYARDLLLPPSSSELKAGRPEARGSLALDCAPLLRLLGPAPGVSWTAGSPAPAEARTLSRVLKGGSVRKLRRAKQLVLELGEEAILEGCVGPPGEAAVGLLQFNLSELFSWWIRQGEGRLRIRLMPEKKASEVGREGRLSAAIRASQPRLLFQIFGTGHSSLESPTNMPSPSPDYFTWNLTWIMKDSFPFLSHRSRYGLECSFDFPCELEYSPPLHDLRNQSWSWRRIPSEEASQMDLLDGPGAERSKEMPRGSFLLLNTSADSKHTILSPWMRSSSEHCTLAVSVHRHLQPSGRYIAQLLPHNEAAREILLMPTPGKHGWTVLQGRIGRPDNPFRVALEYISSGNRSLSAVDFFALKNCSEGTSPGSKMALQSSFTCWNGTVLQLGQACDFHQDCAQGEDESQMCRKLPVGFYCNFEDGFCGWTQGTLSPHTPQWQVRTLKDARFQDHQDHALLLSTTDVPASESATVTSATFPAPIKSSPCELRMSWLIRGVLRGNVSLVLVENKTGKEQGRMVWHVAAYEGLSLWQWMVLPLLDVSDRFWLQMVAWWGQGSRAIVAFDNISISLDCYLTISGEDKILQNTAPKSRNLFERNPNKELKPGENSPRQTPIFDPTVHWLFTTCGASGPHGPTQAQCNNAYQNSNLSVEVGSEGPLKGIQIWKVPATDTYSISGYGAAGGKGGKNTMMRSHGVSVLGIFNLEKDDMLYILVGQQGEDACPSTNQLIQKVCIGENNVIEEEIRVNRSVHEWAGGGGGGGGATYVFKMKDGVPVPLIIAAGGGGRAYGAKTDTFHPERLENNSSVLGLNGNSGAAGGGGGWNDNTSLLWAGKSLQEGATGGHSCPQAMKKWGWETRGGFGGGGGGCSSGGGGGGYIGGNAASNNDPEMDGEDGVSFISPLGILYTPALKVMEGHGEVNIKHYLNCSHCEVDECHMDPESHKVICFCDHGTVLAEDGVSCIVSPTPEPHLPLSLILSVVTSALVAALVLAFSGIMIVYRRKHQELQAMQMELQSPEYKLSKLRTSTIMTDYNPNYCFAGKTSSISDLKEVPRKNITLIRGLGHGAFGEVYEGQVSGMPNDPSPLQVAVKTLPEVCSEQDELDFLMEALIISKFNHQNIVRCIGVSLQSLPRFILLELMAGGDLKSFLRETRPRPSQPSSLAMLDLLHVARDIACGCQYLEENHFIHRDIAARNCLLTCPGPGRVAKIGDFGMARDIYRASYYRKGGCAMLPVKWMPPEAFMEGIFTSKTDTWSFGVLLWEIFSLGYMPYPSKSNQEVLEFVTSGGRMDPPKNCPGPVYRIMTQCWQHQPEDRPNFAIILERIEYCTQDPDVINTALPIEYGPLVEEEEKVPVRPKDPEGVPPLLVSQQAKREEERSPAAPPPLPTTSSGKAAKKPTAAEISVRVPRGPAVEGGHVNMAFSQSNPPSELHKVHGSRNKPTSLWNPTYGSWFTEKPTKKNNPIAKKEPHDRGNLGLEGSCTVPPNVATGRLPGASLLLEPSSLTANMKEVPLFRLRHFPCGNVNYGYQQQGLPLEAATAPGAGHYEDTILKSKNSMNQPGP

Structure (SMILES): Cc1cc(Nc2ncc(Cl)c(Nc3ccccc3S(=O)(=O)C(C)C)n2)c(OC(C)C)cc1C1CCN(CCC(=O)NCCOCCOCCNc2cccc3c2C(=O)N(C2CCC(=O)NC2=O)C3=O)CC1 (centres undefined)
IC50 [1]: 0.7 µM
IC50 [2]: 3.5 µM
IC50 [3]: 7.59 µM
IC50 [4]: 2.6 µM
IC50 [5]: 2.23 µM
Activity [6]: Toxic

Structure (SMILES): Cc1cc(Nc2ncc(Cl)c(Nc3ccccc3S(=O)(=O)C(C)C)n2)c(OC(C)C)cc1C1CCN(C(=O)CCCC(=O)N[C@H](C(=O)N2C[C@H](O)C[C@H]2C(=O)NCc2ccc(-c3scnc3C)cc2)C(C)(C)C)CC1
Activity [7]: > 90%

Structure (SMILES): Cc1cc(Nc2ncc(Cl)c(Nc3ccccc3S(=O)(=O)C(C)C)n2)c(OC(C)C)cc1C1CCN(CCC(=O)NCCOCCNCC(=O)Nc2cccc3c2C(=O)N(C2CCC(=O)NC2=O)C3=O)CC1 (centres undefined)
IC50 [1]: 1.83 µM
IC50 [2]: 5.74 µM
IC50 [3]: 7.23 µM
IC50 [4]: 6.73 µM
IC50 [5]: 5.78 µM
Activity [6]: Toxic

Structure (SMILES): Cc1cc(Nc2ncc(Cl)c(Nc3ccccc3S(=O)(=O)C(C)C)n2)c(OC(C)C)cc1C1CCN(CCC(=O)NCCCCCCNCC(=O)Nc2cccc3c2C(=O)N(C2CCC(=O)NC2=O)C3=O)CC1 (centres undefined)
IC50 [1]: 1.1 µM
IC50 [2]: 3.1 µM
IC50 [3]: > 20 µM
IC50 [4]: 5.13 µM
IC50 [5]: 4.36 µM
Activity [6]: Toxic

Structure (SMILES): Cc1cc(Nc2ncc(Cl)c(Nc3ccccc3S(=O)(=O)C(C)C)n2)c(OC(C)C)cc1C1CCNCC1 [CERITINIB]
IC50 [2]: 1.3 µM
IC50 [3]: 2.92 µM
IC50 [4]: 1.32 µM
IC50 [5]: 0.94 µM
inhibition in vivo at 25 mg/kg/day [8]: 49%

Structure (SMILES): Cc1cc(Nc2ncc(Cl)c(Nc3ccccc3S(=O)(=O)C(C)C)n2)c(OC(C)C)cc1C1CCN(CCC(=O)NCCOCCNCCC(=O)Nc2cccc3c2C(=O)N(C2CCC(=O)NC2=O)C3=O)CC1 (centres undefined)
IC50 [1]: 4.86 µM
IC50 [2]: 5.2 µM
IC50 [3]: 12.3 µM
IC50 [4]: 10.9 µM
IC50 [5]: 7.98 µM
Activity [6]: Toxic

The next lines start with results.

IC50 [1]: 1.3 µM
IC50 [2]: > 20 µM
IC50 [3]: 9.33 µM
IC50 [4]: > 20 µM
IC50 [5]: 6.99 µM
Structure (SMILES): Cc1cc(Nc2ncc(Cl)c(Nc3ccccc3S(=O)(=O)C(C)C)n2)c(OC(C)C)cc1C1CCN(CCC(=O)NCCCCNC(=O)COc2cccc3c2C(=O)N(C2CCC(=O)NC2=O)C3=O)CC1 (centres undefined)
Activity [6]: Toxic

IC50 [1]: 3.52 µM
IC50 [2]: 8.7 µM
IC50 [3]: > 20 µM
IC50 [4]: 13.4 µM
IC50 [5]: 8.15 µM
Structure (SMILES): Cc1cc(Nc2ncc(Cl)c(Nc3ccccc3S(=O)(=O)C(C)C)n2)c(OC(C)C)cc1C1CCN(CCC(=O)NCCCCNCC(=O)Nc2cccc3c2C(=O)N(C2CCC(=O)NC2=O)C3=O)CC1 (centres undefined)
Activity [6]: Toxic

IC50 [1]: 2.34 µM
IC50 [2]: 4.51 µM
IC50 [3]: 10.9 µM
IC50 [4]: 5.81 µM
IC50 [5]: 5.86 µM
Structure (SMILES): Cc1cc(Nc2ncc(Cl)c(Nc3ccccc3S(=O)(=O)C(C)C)n2)c(OC(C)C)cc1C1CCN(CCC(=O)NCCOCCOCCNCC(=O)Nc2cccc3c2C(=O)N(C2CCC(=O)NC2=O)C3=O)CC1 (centres undefined)
Activity [6]: Toxic

IC50 [1]: 2.66 µM
IC50 [2]: 15.1 µM
IC50 [3]: > 20 µM
IC50 [4]: > 20 µM
IC50 [5]: 7.67 µM
Structure (SMILES): Cc1cc(Nc2ncc(Cl)c(Nc3ccccc3S(=O)(=O)C(C)C)n2)c(OC(C)C)cc1C1CCN(CCC(=O)NCCCCCCCCNCC(=O)Nc2cccc3c2C(=O)N(C2CCC(=O)NC2=O)C3=O)CC1 (centres undefined)
Activity [6]: Toxic
